In data set [1] the test system is human A549 lung cancer cell line. The data set is described as follows: Cell growth inhibition assay (SRB), Example 1. The following applies: for IC50: 72 h, A549, SRB, 3 days exposure; for EC50: table footnotes of Example 1, A549. It counts as cell-based. An excerpt: Results and discussion. […] Etoposide (VP-16) was used as the reference compound.
Cell Growth Inhibition Assay. The human A549 lung cancer cell line was used for the cytotoxicity screening of PBT derivatives using the cell-based sulforhodamine B (SRB) microtitre plate assay. […] Duration of compound exposure was 3 days.

Data set [2] shares this test system. Kind of data set: Cell growth inhibition assay (SRB), Example 2, A549. In kind it is cell-based. The source says:
Cell Growth Inhibition Assay. The sulforhodamine B assay was used according to the procedures developed and validated at NCI. […] The values were interpolated from dose-response data.

In the next data set the test system is KB (nasopharyngeal). The data set is described as follows: Cell growth inhibition assay (SRB), Example 2, KB. It counts as cell-based, human. The following applies: Table 6, 72-h continuous treatment. An excerpt: (§1) Drug-Resistance Study. Twelve active compounds [including four hydrochloride salts (18b, 22b, 24b, 32b) of corresponding active free bases (18a, 22a, 24a, 32a)] were further screened against an extended panel of human tumor cell lines including DU-145 (prostate), ZR-751 (breast), KB (nasopharyngeal), and KB-VIN (multidug-resistant KB subline) in order to explore their antitumor spectra and drug-resistance profiles. Four compounds were used as reference compounds. Antofine is a positional isomer of tylophorine isolated from Asclepiadaceae by Dr. T. S. Wu in Taiwan (Wu, P. L. et al., Heterocycles 2002; 57:2401). […] Doxorubicin (Adriamycin), vincristine, and etoposide (VP-16, Vepesid®) are widely used anticancer agents for treating a range of solid tumors.
(§2) Cell Growth Inhibition Assay. The sulforhodamine B assay was used according to the procedures developed and validated at NCI. The in vitro anticancer activities are expressed as ED50 values, which is the test compound concentration (μM) that reduced the cell number by 50% after 72-h of continuous treatment. The values were interpolated from dose-response data. Each test was performed in triplicate with variation less than 5%. The ED50 values determined in each of independent tests varied less than 10%. Compound stock solutions were prepared in DMSO with the final solvent concentration ≦1% DMSO (v/v), a concentration without effect on cell replication. The cells were cultured at 37° C. in RPMI-1640 supplemented with 25 mM N-2-hydroxyethylpiperazine-N′-2-ethanesulfonic acid (HEPES), […], 10% (v/v) fetal bovine serum, and 100 μg/mL kanamycin in a humidified atmosphere containing 5% CO2.

A further data set concerns DU-145 (prostate). Kind of data set: Cell growth inhibition assay (SRB), Example 2, DU-145. In kind it is cell-based, human. The following applies: Table 6, 72-h continuous treatment.
Source text: as §1, §2

The test system of a further data set is ZR-751 (breast). Kind of data set: Cell growth inhibition assay (SRB), Example 2, ZR-751. In kind it is cell-based, human. The following applies: Table 6, 72-h continuous treatment.
Source text: as §1, §2

Data set [3] has as its system KB-VIN (multidug-resistant KB subline). Kind of data set: Cell growth inhibition assay (SRB), Example 2, KB-VIN. In kind it is cell-based, human. The following applies: Table 6, 72-h continuous treatment.
Source text: as §1, §2

Where [4] appears, read: Homo sapiens, Table 1, NA = Not Active.
[5] abbreviates: Homo sapiens, A549, 72 h, Table 4, ED50, 72-h continuous treatment, NA = not active, read-out: A549 (μM), in vitro anticancer activity against A549 lung cancer cells.
Where [6] appears, read: Homo sapiens, A549, 72 h, Table 6, 72-h continuous treatment, read-out: EC50 (μM) A549.
[7] abbreviates: Table 4, ED50, 72-h continuous treatment, NA = not active, read-out: A549 (μM), in vitro anticancer activity against A549 lung cancer cells.
[8] abbreviates: Table 6, 72-h continuous treatment, read-out: EC50 (μM) A549.

This note sets out measurements from patent publication US8188089B2, “Tylophorine analogs as antitumor agents” (The University of North Carolina at Chapel Hill, priority 2006, dated 2012).

Consider `CC(CCCCO)NCc1cc2cc3c(cc2c2cc(OCc4ccccc4)ccc12)OCO3` (centres unmarked), for which the melting point – broadly, the temperature, or range, at which the solid turns liquid – fell in the range of 175 to 177 °C.
In the case of `O=C(O)[C@@H]1CCCN1C(=O)c1cc2cc3c(cc2c2cc(O)ccc12)OCO3` [Compound 22, N-(2,3-Methylenedioxy-6-hydroxy-phenanthr-9-ylcarbonyl)-L-proline], the melting point lay within 230 to 231 °C. Besides, inhibition in data set [1] (setting [4]) was half-maximal at 39.7 µM (IC50).
The compound `O=C(O)CCCCCNCc1cc2cc3c(cc2c2cc(OCc4ccccc4)ccc12)OCO3` [Compound 12, N-(2,3-Methylenedioxy-6-benzyloxy-phenanthr-9-ylmethyl)-6-aminohexanoic acid] had a melting point of 184 to 186 °C. The IC50 (usually the concentration that gives 50% inhibition) in data set [1] (setting [4]) worked out at 1.6 µM.
Compound `COc1ccc(/C(=C\c2ccc(OC)c(OC)c2)CN2CCC[C@H]2CO)cc1` [Compound 42, {1-[3-(3,4-Dimethoxyphenyl)-2-(4-methoxyphenyl)allyl]-pyrrolidin-2-yl}-methanol] yielded an IC50 in data set [1] (Homo sapiens, Table 3) of 52.2 µM.
Regarding `COc1ccc2c(CN3CCC[C@H]3CO)cc3cc4c(cc3c2c1)OCO4` [Compound 32, N-(2,3-Methylenedioxy-6-methoxy-phenanthr-9-ylmethyl)-L-prolinol], the melting point lay in the range of 138 to 139 °C. In data set [1] (setting [4]), the IC50 is 0.7 µM.
The compound `O=C(O)CCCCNCc1cc2cc3c(cc2c2cc(OCc4ccccc4)ccc12)OCO3` yielded a melting point of 197 to 199 °C.
On to `CC[C@H]1CN2CCc3cc(OC)c(OC)cc3[C@@H]2C[C@@H]1C[C@H]1NCCc2cc(OC)c(OC)cc21` [Emetine, reference compound], for which the EC50 was 0.04 µM in data set [2] (setting [5]); 0.04 µM in data set [2] (setting [6]); 0.04 µM in the data set on KB (nasopharyngeal) (Homo sapiens, 72 h); 0.06 µM in the data set with DU-145 (prostate) (Homo sapiens, DU-145, 72 h); 0.1 µM in the data set with ZR-751 (breast) (Homo sapiens, ZR-75-1, 72 h); > 2 µM in data set [3] (Homo sapiens, KBVIN, 72 h).
With `COc1cccc2c1C(=O)c1c(O)c3c(c(O)c1C2=O)C[C@@](O)(C(=O)CO)C[C@@H]3O[C@H]1C[C@H](N)[C@H](O)[C@H](C)O1` [Doxorubicin, reference compound], the EC50 in data set [2] (setting [5]) is 0.18 µM; in data set [2] (setting [6]), 0.18 µM; in the data set on KB (nasopharyngeal) (Homo sapiens, 72 h), 0.18 µM; in the data set on DU-145 (prostate) (Homo sapiens, DU-145, 72 h), 0.13 µM; in the data set with ZR-751 (breast) (Homo sapiens, ZR-75-1, 72 h), 0.04 µM; in data set [3] (Homo sapiens, KBVIN, 72 h) it was > 4 µM.
Take `COc1ccc(/C(=C\c2cc(OC)c(OC)cc2[N+](=O)[O-])CN2CCC[C@H]2CO)cc1` [Compound 41, {1-[3-(4,5-Dimethoxy-2-nitrophenyl)-2-(4-methoxyphenyl)-allyl]-pyrrolidin-2-yl}-methanol]: half-maximal inhibition in data set [1] (Homo sapiens, Table 3) (IC50) required 11.7 µM.
Take `COc1ccc2c(CNCCCCCC(=O)O)cc3cc(OC)c(OC)cc3c2c1`: the melting point was in the range of 133 to 134 °C.
In turn, `COc1ccc(/C(=C\c2cc(OC)c(OC)cc2[N+](=O)[O-])CN2CCC[C@H]2C(=O)O)cc1` [Compound 40, 1-[3-(4,5-Dimethoxy-2-nitrophenyl)-2-(4-methoxyphenyl)-allyl]-pyrrolidine-2-carboxylic acid] came in with an IC50 in data set [1] (Homo sapiens, Table 3) of 45.2 µM. This counts as double-digit micromolar.
`CCCCCC(CCCCCO)NCc1cc2cc3c(cc2c2cc(OC)ccc12)OCO3` (centres unmarked): the melting point lay within 122 to 124 °C.
Turning to `COc1ccc2c(CN3CCCC[C@H]3C(=O)O)cc3cc(OC)c(OC)cc3c2c1` [Compound 37, N-(2,3,6-Trimethoxyphenanthr-9-ylmethyl)-L-2-piperidinecarboxylic acid], the EC50 in data set [1] stood at 9.7 µM.
Take `COc1ccc2c(C(=O)O)cc3cc(OC)c(OC)cc3c2c1` [Compound 7c, 2,3,6-Trimethoxyphenanthrene-9-carboxylic acid]: the melting point is 241 to 243 °C.
Take `COc1ccc2c3c(c4cc(OC)c(OC)cc4c2c1)C[C@H]1CCCN1C3` [Antofine, reference compound]: the EC50 is 0.008 µM in data set [2] (setting [7]); 0.008 µM in data set [2] (setting [8]); 0.013 µM in the data set with KB (nasopharyngeal); 0.009 µM in the data set with DU-145 (prostate); 0.008 µM in the data set with ZR-751 (breast); 0.009 µM in data set [3].
Compound `O=C(O)c1cc2cc3c(cc2c2cc(OCc4ccccc4)ccc12)OCO3` [Compound 7a, 2,3-Methylenedioxy-6-benzyloxy-phenanthrene-9-carboxylic acid] displayed a melting point of 263 to 265 °C.
For `COc1ccc2c(CN3CCCC[C@H]3CO)cc3cc(OC)c(OC)cc3c2c1` [Compound 38, N-(2,3,6-Trimethoxyphenanthr-9-ylmethyl)-L-2-piperidinemethanol], the EC50 in data set [1] came to 6.3 µM.
`O=C(O)[C@@H]1CCCN1Cc1cc2cc3c(cc2c2cc(OCc4ccccc4)ccc12)OCO3` [Compound 18, N-(2,3-Methylenedioxy-6-benzyloxy-phenanthr-9-ylmethyl)-L-proline] registered a melting point of 147 to 149 °C. Also, the IC50 in data set [1] (setting [4]) amounted to 4.4 µM. The compound also showed an EC50 in data set [1] (Homo sapiens) of 4.4 µM.
The compound `O=C(O)CCCCCNC(=O)c1cc2cc3c(cc2c2cc(OCc4ccccc4)ccc12)OCO3` [Compound 11, N-(2,3-methylenedioxy-6-benzyloxy-phenanthr-9-ylcarbonyl)-6-aminohexanoic acid] had a melting point of 198 to 200 °C. Besides, the IC50 in data set [1] (setting [4]) turned out to be 41.2 µM.
`CC[C@]1(O)C[C@H]2CN(CCc3c([nH]c4ccccc34)[C@@](C(=O)OC)(c3cc4c(cc3OC)N(C=O)[C@H]3[C@@](O)(C(=O)OC)[C@H](OC(C)=O)[C@]5(CC)C=CCN6CC[C@]43[C@@H]65)C2)C1` [Vincristine, reference compound]: the EC50 was 0.04 µM in data set [2] (setting [5]); 0.04 µM in data set [2] (setting [6]); 0.006 µM with KB (nasopharyngeal) (Homo sapiens, 72 h); 0.085 µM in the data set on DU-145 (prostate) (Homo sapiens, DU-145, 72 h); 0.04 µM in the data set with ZR-751 (breast) (Homo sapiens, ZR-75-1, 72 h); 5.3 µM in data set [3] (Homo sapiens, KBVIN, 72 h).
`COc1ccc2c(CN3CCC(CO)CC3)cc3cc4c(cc3c2c1)OCO4` [Compound 24a, N-(2,3-Methylenedioxy-6-methoxy-phenanthr-9-ylmethyl)-L-4-piperidinemethanol]: the EC50 in data set [2] (setting [7]) stood at 0.08 µM; in data set [2] (setting [8]), 0.08 µM; in the data set with KB (nasopharyngeal), 0.24 µM; in the data set on DU-145 (prostate), 0.03 µM; with ZR-751 (breast), 0.03 µM; in data set [3], 0.09 µM.
Consider `COc1ccc2c(CNCCCCCCCCCCC(=O)O)cc3cc4c(cc3c2c1)OCO4`, for which the melting point is 146 to 148 °C.
In data set [1] (Homo sapiens, Table 3), `COc1ccc(/C(=C\c2cc(OC)c(OC)cc2[N+](=O)[O-])C(=O)N2CCC[C@H]2C(=O)O)cc1` [Compound 39, 1-[3-(4,5-Dimethoxy-2-nitrophenyl)-2-(4-methoxyphenyl)-acryloyl]-pyrrolidine-2-carboxylic acid] came in with an IC50 of 80 µM.
`COc1ccc2c(CNCCCCCC(=O)O)cc3cc4c(cc3c2c1)OCO4` displayed a melting point of 167 to 169 °C.
On the same count and under the same terms, in the case of `COc1ccc2c(CNCCCCC(=O)O)cc3cc4c(cc3c2c1)OCO4` it was 145 to 146 °C.
The compound `COC(=O)CCCCCNC(=O)c1cc2cc3c(cc2c2cc(OCc4ccccc4)ccc12)OCO3` [Compound 10, Methyl N-(2,3-methylenedioxy-6-benzyloxy-phenanthr-9-ylcarbonyl)-6-aminohexanoate] returned an IC50 in data set [1] (setting [4]) of 41.2 µM.
In the case of `COc1ccc2c(C(=O)O)cc3cc4c(cc3c2c1)OCO4` [Compound 7b, 2,3-Methylenedioxy-6-methoxy-phenanthrene-9-carboxylic acid], the melting point was 293 to 295 °C.
The same measure, in the same setting: for `COc1ccc2c(CNCCCCCO)cc3cc4c(cc3c2c1)OCO4` the value was 125 to 126 °C.
Turning to `COc1ccc2c(CN3CCCC[C@H]3CO)cc3cc4c(cc3c2c1)OCO4` [Compound 18a, N-(2,3-Methylenedioxy-6-methoxy-phenanthr-9-ylmethyl)-L-2-piperidinemethanol], the EC50 was 0.2 µM in data set [2] (setting [8]), 0.21 µM in the data set with DU-145 (prostate) and 0.1 µM in the data set with ZR-751 (breast).
